Experimental data from patent US7468446B2, “Substituted heterocyclic compounds and uses thereof” (Celgene Corporation, priority 2004, dated 2008).

Structure (SMILES)	melting point [°C]
CCOc1cc(C(=CC#N)c2ccc3c(c2)OCCN3C)ccc1OC (mixture of isomers) [compound 3, (E/Z) 3-(3-Ethoxy-4-methoxy-phenyl)-3-(4-methyl-3,4-dihydro-2H-benzo[1,4]oxazin-7-yl)-acrylonitrile]	99 to 101
COc1cc(OC)cc(C(=CC#N)c2ccc3ccn(C)c3c2)c1 (mixture of isomers) [compound 7, (E/Z)-3-(3,5-Dimethoxy-phenyl)-3-(1-methyl-1H-indol-6-yl)-acrylonitrile]	117 to 119
COc1cc(OC)cc(C(=CC#N)c2ccc3ncccc3c2)c1 (mixture of isomers) [compound 6, (E/Z) 3-(3,5-Dimethoxy-phenyl)-3-quinolin-6-yl-acrylonitrile]	142 to 144
COc1cc(OC)cc(C(=CC#N)c2ccc3c(c2)OCCN3C)c1 [compound 2, 3-(3,5-Dimethoxy-phenyl)-3-(4-methyl-3,4-dihydro-2H-benzo[1,4]oxazin-7-yl)-acrylonitrile]	119 to 121

The remaining lines, values ahead:

melting point [°C]	Structure (SMILES)
180 to 182	CCOc1cc(C(=CC#N)c2ccc3c(c2)nnn3C)ccc1OC (mixture of isomers) [compound 4, (E/Z) 3-(3-Ethoxy-4-methoxy-phenyl)-3-(1-methyl-1H-benzotriazol-5-yl)-acrylonitrile]
132 to 134	CCOc1cc(C(=CC#N)c2ccc3cc[nH]c3c2)ccc1OC (mixture of isomers) [compound 8, (E/Z)-3-(3-Ethoxy-4-methoxy-phenyl)-3-(1H-indol-6-yl)-acrylonitrile]
49 to 51	CCOc1cc(C(=CC#N)c2ccc3c(c2)CCO3)ccc1OC (mixture of isomers) [compound 1, (E/Z) 3-(2,3-Dihydro-benzofuran-5-yl)-3-(3-ethoxy-4-methoxy-phenyl)-acrylonitrile]
95 to 97	CCOc1cc(C(=CC#N)c2ccc3occc3c2)ccc1OC (mixture of isomers) [compound 10, (E/Z)-3-Benzofuran-5-yl-3-(3-ethoxy-4-methoxy-phenyl)-acrylonitrile]
114 to 116	CCOc1cc(C(=CC#N)c2ccc3ncccc3c2)ccc1OC (mixture of isomers) [compound 5, (E/Z) 3-(3-Ethoxy-4-methoxy-phenyl)-3-quinolin-6-yl-acrylonitrile]
